Experimental data as given in article PMC6664820, “Novel natural and synthetic inhibitors of solute carriers SGLT1 and SGLT2” (Pharmacology Research & Perspectives, 2019).
Counter-ions that a name gives are not always drawn.

Experiments:
CHO‐hSGLT1/2 cells = assay: Cytotoxicity assay (ToxiLight, adenylate kinase leakage into CHO‐SGLT1/2 inhibition assay media); set-up: CYTOTOXICITY / CY[…], mean / CYTOTOXICITY (% of vehicle control) Mean / CYTOTOXICITY, mean / CY[…] (% of vehicle control) Mean: dose or concentration left out as unconfirmed; conditions: mean; for CY[…] 50 mM: at 50 mM (so in the source);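 for all read-outs here: bioluminescent read-out of adenylate kinase released from lysed cells into the medium, given relative to DMSO vehicle control defined as 0%, higher meaning more cytolysis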
Protocol: The cytotoxicity of representative SGLT1/2 inhibitors and compounds from the different chemical clusters was tested. Cytotoxicity was determined using the ToxiLight bioassay kit according to the supplier's instructions. This nondestructive assay measures leakage of the enzyme adenylate kinase (AK) from damaged cells into the CHO‐SGLT1/2 inhibition assay media, ie the degree of cytolysis. […] Next, bioluminescence was measured using a FlexStation 3 Multi‐Mode Microplate Reader (Molecular Devices) by 1 second integrated reading. Cytotoxicity was expressed as the percentage of bioluminescence of the DMSO vehicle control which was set at 0%. If applicable, statistical outliers were determined using Grubbs’ test (alpha = 0.05) and excluded for calculation of the mean ± SD.

hSGLT2 = target: T1, hSGLT2 (Homo sapiens, UniProt P31639); assay: SGLT2 inhibition assay for validation of screening hits and similar compounds (1‐NBD‐glucose uptake, CHO‐hSGLT2 cells); type: cell-based; set-up: activity: dose or concentration left out as unconfirmed; conditions: for SGLT2/SGLT1 ACTIVITY RATIO 5 uM Mean: ratio of normalized SGLT2 to SGLT1 activity at 5 uM; for remaining activity at 5 µM / remaining activity at 50 µM: 0.5 h, concentration not given, read-out: NORMALIZED SGLT2 ACTIVITY (%); for remaining activity at 5 µM / remaining activity at 50 µM / activity: mean; for activity: compound, normalized 1-NBD-glucose uptake, CHO-hSGLT2 cells
T1 sequence (P31639 1-672): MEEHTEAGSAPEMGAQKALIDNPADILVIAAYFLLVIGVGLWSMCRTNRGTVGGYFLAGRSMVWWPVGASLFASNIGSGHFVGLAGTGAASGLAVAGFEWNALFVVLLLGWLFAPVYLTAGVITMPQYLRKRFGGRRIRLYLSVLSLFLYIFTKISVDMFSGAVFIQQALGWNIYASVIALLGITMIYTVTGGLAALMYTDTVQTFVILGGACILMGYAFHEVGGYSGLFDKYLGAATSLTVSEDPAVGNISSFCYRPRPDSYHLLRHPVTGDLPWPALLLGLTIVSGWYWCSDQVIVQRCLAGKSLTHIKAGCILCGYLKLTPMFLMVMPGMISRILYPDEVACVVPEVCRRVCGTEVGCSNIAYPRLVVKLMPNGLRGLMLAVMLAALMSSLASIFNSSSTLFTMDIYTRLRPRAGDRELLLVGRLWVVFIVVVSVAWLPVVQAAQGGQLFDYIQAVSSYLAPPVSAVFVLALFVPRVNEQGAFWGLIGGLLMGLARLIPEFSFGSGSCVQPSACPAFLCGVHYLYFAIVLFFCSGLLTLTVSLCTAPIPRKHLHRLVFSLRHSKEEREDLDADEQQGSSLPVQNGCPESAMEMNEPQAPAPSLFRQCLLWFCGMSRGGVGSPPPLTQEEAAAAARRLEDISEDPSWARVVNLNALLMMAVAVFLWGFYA

SGLT1 = target: T2, SGLT1 (Homo sapiens, UniProt P13866); assay: SGLT1 inhibition assay for validation of screening hits and similar compounds (1‐NBD‐glucose uptake, CHO‐hSGLT1 cells); type: cell-based; set-up: activity: dose or concentration left out as unconfirmed; conditions: for remaining activity at 5 µM / remaining activity at 50 µM: 0.5 h, concentration not given, read-out: NORMALIZED SGLT1 ACTIVITY (%); for remaining activity at 5 µM / remaining activity at 50 µM / activity: mean; for activity: compound, normalized 1-NBD-glucose uptake, CHO-hSGLT1 cells
T2 sequence (P13866 1-664): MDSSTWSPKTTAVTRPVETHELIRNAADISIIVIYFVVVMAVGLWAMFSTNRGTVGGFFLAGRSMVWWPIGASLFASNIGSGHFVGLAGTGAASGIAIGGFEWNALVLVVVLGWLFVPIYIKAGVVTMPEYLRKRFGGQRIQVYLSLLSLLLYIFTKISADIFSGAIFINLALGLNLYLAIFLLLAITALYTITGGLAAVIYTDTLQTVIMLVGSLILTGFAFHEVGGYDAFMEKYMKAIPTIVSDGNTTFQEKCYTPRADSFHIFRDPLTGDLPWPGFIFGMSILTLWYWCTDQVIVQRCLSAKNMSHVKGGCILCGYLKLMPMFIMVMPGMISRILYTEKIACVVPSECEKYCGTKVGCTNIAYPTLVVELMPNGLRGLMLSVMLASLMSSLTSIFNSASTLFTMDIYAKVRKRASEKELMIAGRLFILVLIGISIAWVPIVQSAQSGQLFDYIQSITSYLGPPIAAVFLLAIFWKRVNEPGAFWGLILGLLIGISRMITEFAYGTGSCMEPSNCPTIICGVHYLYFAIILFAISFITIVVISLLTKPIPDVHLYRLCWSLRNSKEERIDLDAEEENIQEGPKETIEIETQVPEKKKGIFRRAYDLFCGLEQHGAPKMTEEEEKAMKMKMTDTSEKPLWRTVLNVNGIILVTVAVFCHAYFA

transporters = tested on: transporters; set-up: method as in earlier work; conditions: known transporter targets, per category of inhibited transporters; cited from earlier work
[1] = mean inhibition with 50 μmol/L inhibitor

| SMILES | CYTOTOXICITY (% of vehicle control) Mean (CHO‐hSGLT1/2 cells) | SGLT2/SGLT1 ACTIVITY RATIO 5 uM Mean (hSGLT2) | CYTOTOXICITY (CHO‐hSGLT1/2 cells) | remaining activity at 5 µM (hSGLT2) | remaining activity at 50 µM (hSGLT2) | remaining activity at 5 µM (SGLT1) | remaining activity at 50 µM (SGLT1) | activity (hSGLT2) | activity (SGLT1) | other results |
| --- | --- | --- | --- | --- | --- | --- | --- | --- | --- | --- |
| CC1(C)Oc2ccc3ccc(=O)oc3c2CC1O (stereo not shown) [Lomatin] | -26 % of vehicle control | 1.0 |  |  |  |  |  |  |  | SGLT2 inhibition (hSGLT2; [1]): no SGLT inhibition; SGLT1 inhibition (SGLT1; [1]): no SGLT inhibition |
| Oc1cc(O)cc(/C=C/c2ccc(O)cc2O)c1 [Oxyresveratrol] |  |  | -89 | 109% | 115% | 105% | 123% |  |  |  |
| C1CCC(C(CC2CCCCN2)C2CCCCC2)CC1 (stereo not shown) [Perhexiline maleate salt] |  |  |  | 88% | 38% | 98% | 49% |  |  | CY[…] 50 mM (CHO‐hSGLT1/2 cells): 0.684 |
| Oc1cc(O)cc(/C=C/c2ccc(O)c(O)c2)c1 [Piceatannol] |  |  | -87 | 101% | 105% | 107% | 101% |  |  |  |
| Oc1cc(O)cc(/C=C/c2ccccc2)c1 [Pinosylvin] |  |  | -71 | 97% | 117% | 98% | 155% |  |  |  |
| CC1(C)Oc2ccc3ccc(=O)oc3c2[C@@H](O)[C@H]1O[C@@H]1O[C@H](CO)[C@@H](O)[C@H](O)[C@H]1O [Praeroside II] | 10 % of vehicle control | 1.0 |  |  |  |  |  | 98% | 98% |  |
| CC=C(C)C(=O)O[C@H]1c2c(ccc3ccc(=O)oc23)OC(C)(C)[C@H]1OC(=O)C(C)=CC [Praeruptorin B - INDOFINE] | -15 % of vehicle control | 1.0 |  |  |  |  |  | 92% | 91% |  |
| COc1cc(O)c2c(=O)c(-c3ccc(OC4OC(CO)C(O)C(O)C4O)cc3)coc2c1 (stereo not shown) [Prunetin-4-p-galactoside] | -26 % of vehicle control | 1.2 |  |  |  |  |  | 100% | 81% |  |
| COc1cc(/C=C/c2ccc(O)cc2)cc(OC)c1 [Pterostilbene] |  |  | -42 | 102% | 123% | 100% | 119% |  |  |  |
| C[C@@H]1O[C@@H](O[C@H]2[C@H](O[C@H]3CC[C@]4(C)[C@H]5CC=C6[C@@H]7CC(C)(C)CC[C@]7(C(=O)O)CC[C@@]6(CO)[C@]5(C)CC[C@H]4C3(C)C)OC[C@H](O[C@@H]3O[C@H](CO)[C@@H](O)[C@H](O)[C@H]3O)[C@@H]2O)[C@H](O)[C@H](O)[C@H]1O [Raddeanoside 20] |  |  | -24 | 116% | 116% | 103% | 99% |  |  |  |
| CCCN1CCCC[C@H]1C(=O)Nc1c(C)cccc1C [Ropivacaine HCl monohydrate] |  |  |  | 86% | 67% | 97% | 70% |  |  | CY[…] 50 mM (CHO‐hSGLT1/2 cells): 0.836 |
| COc1cc(O[C@@H]2O[C@H](CO)[C@@H](O)[C@H](O)[C@H]2O)c2c(c1)O[C@H](c1ccc(O)cc1)CC2=O [Sakuranin] | -1.5 % of vehicle control | 1.0 |  |  |  |  |  | 100% | 98% |  |
| CC(=O)OC1c2c(ccc3ccc(=O)oc23)OC(C)(C)C1OC(=O)C=C(C)C (stereo not shown) [Samidin] | -10 % of vehicle control | 1.1 |  |  |  |  |  | 94% | 85% |  |
| C/C=C(/C)C(=O)O[C@@H]1Cc2c(ccc3ccc(=O)oc23)OC1(C)C [Selinidin] | -6 % of vehicle control | 0.952 |  |  |  |  |  | 94% | 99% | inhibition at 50 µM (hSGLT2; [1]): 25%; inhibition at 50 µM (SGLT1; mean inhibition with 50 μmol/L inhibitor, read-out: SGLT1 inhibition): 12% |
| COc1cc(/C=C/c2cc(O)cc(O)c2)c2c(c1)O[C@H](c1ccc(OC)c(O)c1)[C@H]2c1cc(O)cc(O)c1 [Shegansu B] |  |  | -25 | 101% | 103% | 100% | 100% |  |  |  |
| COc1ccc(-c2coc3cc(O[C@@H]4O[C@H](CO)[C@@H](O)[C@H](O)[C@H]4O)cc(O)c3c2=O)cc1 [Sissotrin] | -23 % of vehicle control | 1.1 |  |  |  |  |  | 106% | 99% |  |
| COc1cc(O)cc(/C=C/c2cccc(O)c2)c1 [Thunalbene] |  |  | -81 | 108% | 148% | 106% | 145% |  |  |  |
| CN1[C@@H]2CC[C@H]1C[C@@H](OC(c1ccccc1)c1ccccc1)C2 [benztropine] |  |  |  |  |  |  |  |  |  | INHIBITED TRANSPORTERS (transporters): SLC6A2, SLC6A3, SCN10A |
| CC1(C)Oc2ccc3ccc(=O)oc3c2[C@H](O)[C@@H]1O [cis-Khellactone] | -9 % of vehicle control | 0.9 |  |  |  |  |  | 95% | 102% |  |
| CCC(C)C(=O)O[C@H]1[C@H](OC(C)=O)c2c(ccc3ccc(=O)oc23)OC1(C)C (stereo partly shown) [peucedanocoumarin I] | 4.22 % of vehicle control | 1.1 |  |  |  |  |  | 102% | 95% | SGLT2/SGLT1‐50μmol/L (ratio of SGLT2 to SGLT1 activities with 50 μmol/L inhibitor) (SGLT1): 2 |
| CC=C(C)C(=O)O[C@@H]1[C@H](OC(C)=O)c2c(ccc3ccc(=O)oc23)OC1(C)C [praeruptorin A] | -0.825 % of vehicle control | 1.2 |  |  |  |  |  | 111% | 93% | SGLT2/SGLT1‐50μmol/L (ratio of SGLT2 to SGLT1 activities with 50 μmol/L inhibitor) (SGLT1): 3.1 |
| C/C=C(\C)C(=O)O[C@H]1c2c(ccc3ccc(=O)oc23)OC(C)(C)[C@H]1OC(=O)/C(C)=C/C [praeruptorin D] | -9 % of vehicle control | 1.4 |  |  |  |  |  | 110% | 79% | SGLT2/SGLT1‐50μmol/L (ratio of SGLT2 to SGLT1 activities with 50 μmol/L inhibitor) (SGLT1): 2.6 |
| CC=C(C)C(=O)O[C@H]1[C@@H](OC(=O)CC(C)C)c2c(ccc3ccc(=O)oc23)OC1(C)C [praeruptorin E] | -1.25 % of vehicle control | 1.7 |  |  |  |  |  | 123% | 73% | SGLT2/SGLT1‐50μmol/L (ratio of SGLT2 to SGLT1 activities with 50 μmol/L inhibitor) (SGLT1): 3.1 |
| Cc1nc2sccn2c(=O)c1CCN1CCC(=C(c2ccc(F)cc2)c2ccc(F)cc2)CC1 [ritanserin, reference compound] |  |  | -5.28 | 64% | 15% | 76% | 44% |  |  | SGLT2/SGLT1‐50μmol/L (ratio of SGLT2 to SGLT1 activities with 50 μmol/L inhibitor) (SGLT1): 0.3 |
| COc1ccc(-c2coc3cc(O[C@@H]4O[C@H](CO)[C@@H](O)[C@H](O)[C@H]4O)c(OC)cc3c2=O)cc1 [wistin] | -51 % of vehicle control | 1.0 |  |  |  |  |  | 98% | 99% | Cytotoxicity (percentage of bioluminescence of DMSO vehicle control, set at 0%) (CHO‐hSGLT1/2 cells; CHO‐SGLT1 and CHO‐SGLT2 data combined, ≥20% considered toxic): −51% |
